From patent publication US20260235546A1, “Methods and Systems for Interrogating Electrochemical Sensors” (The Regents of the University of California, priority 2023, published 2026)
Values joined by “and” are separate entries in the source; they are usually repeats but may differ in a detail not shown here. Identical values can stand only once.

Columns and labels:
[1] = FFT-EIS-interrogated lactate-detecting EAB sensor, real-time plasma lactate in a living rat; type: in vivo, Sprague-Dawley rats; conditions: about 1000 mg/kg sodium lactate intravenously
Protocol: FFT-EIS can be used to interrogate in vivo EAB sensors to monitor plasma lactate concentrations in a live rat in real time (FIGS. 13A and 13B). Lactate is an important clinical biomarker for sepsis and hypoxia during anesthesia, and lactate levels are useful to monitor sport performances. FFT-EIS is used to characterize the lactate-detecting EAB sensor in undiluted blood held at about 37° C. by stepwise changing the lactate level and measuring the corresponding ket value (FIG. 13A). […] Lactate concentrations can be determined in real time in a living rat by measuring changes in ket when employing the lactate detecting EAB sensor (FIG. 13B). Stable concentrations were measured prior to intravenously infusing about 1000 mg/kg sodium lactate.
The lactate aptamer is modified with a six-carbon thiol and the redox reporter methylene blue. The aptamer was reduced for 1 h in a solution containing about 11.26 μM aptamer and 8.87 mM TCEP and subsequently diluted till 500 nM in a PBS buffer plus 2 mM MgCl2. The intravenous sensors were fed through 20-gauge catheters and used the in vitro sensors as is. To form the lactate-detecting EAB sensor, the aptamer was deposited on the gold electrode by immersing the electrode for 1 h in a 500 nM reduced lactate aptamer solution followed by overnight immersion in 10 mM 6-mercaptohexanol to form a self-assembled monolayer. […]

[2] = system: phenylalanine-detecting EAB sensor (methylene-blue-modified aptamer); assay: FFT-EIS binding curve of phenylalanine-detecting EAB sensor in whole, freshly-collected rat's blood at 37° C
Protocol: (§1) To functionalize the working electrode the disulfide bond was first reduced in the stock alkanethiol-and-methylene-blue modified aptamer by combining 14 μL of 10 mM tris (2-carboxyethyl) phosphine with 2 μL of 100 μM DNA for 1 h in the dark. The gold electrodes were electrochemically cleaned and roughened with Millipore water and followed by immersion for 1 h in 500 nM reduced DNA in PBS. The electrodes were then transferred to a 10 mM solution of 6-mercapto-1-hexanol in PBS and stored overnight before use.
All electrochemical measurements were performed using an Autolab PGStat128N. The potentiostat was configured in “high stability mode” with a current range of ±1 μA, which affects the filter characteristics. For FFT-EIS measurements, the multi-sin waveform was generated by a DG812 arbitrary waveform generator (Rigol Technologies) and fed into the potentiostat's external voltage input using a BNC connection. The voltage waveform consisted of a superposition of 18 sine waves at logarithmically spaced frequencies ranging from 1 Hz to 1 kHz. The amplitude and phase of each sinusoidal oscillation were optimized for maximum signal-to-noise as discussed in the supporting information of Example 7, and the summed waveform was scaled to have a peak-to-peak amplitude of 25 mV. The potentiostat's native software (NOVA) was used to set the DC bias—the formal potential of methylene blue, as measured by cyclic voltammetry—on top of the AC perturbation. Voltage and current were recorded at 70 kHz using an SDS1202X-E oscilloscope. […] Data recording and processing were controlled by a custom Python program. Further details on the chosen waveform and artefact correction are described in supporting information of Example 7 (FIG. 7, FIG. 9, FIG. 11).
Impedance spectra were fitted to the equivalent circuit model using MEISP 3.0 after each experiment was complete. […]
Reference is made to FIG. 12. […] The endogenous concentration of phenylalanine in the blood (52 μM) was determined e using a fluorescent assay kit. […]

[3] = FFT-EIS-interrogated EAB sensor in jugular vein, real-time phenylalanine concentration in fasted and non-fasted rats; type: in vivo, Sprague-Dawley rats
Protocol: (§2) All in vivo experiments were performed on male Sprague-Dawley rats (4-5 months old). The rats weighed between 350-500 g and were pair-housed in a standard light cycle room (12:12 regular light cycle with lights on at 8 AM). They were allowed ad libitum access to food and water and the Institutional Animal Care and Use Committee (IACUC) of the University of California at Santa Barbara approved the experimental protocol which adhered to the guidelines given by the NIH Guide for Care and Use of Laboratory Animals.
Prior to the measurement, the rats were anesthetized using 4% isofluorane in a Plexiglas anesthesia chamber. Anesthesia was then maintained via a nose cone for the entire duration of the experiment at a level of 2-3% isofluorane. The neck was shaved and dissected in order to surgically isolate the left and right jugular veins. After isolating the two jugular veins, each one was tied off using sterile 6-0 silk sutures. Prior to the measurement, the wires in the sensor were adjusted such that the counter and working electrode were exposed outside of the 20G catheter into the vein as previously described. A small incision was then made in each vein using spring-loaded microscissors that allowed us to insert the sensor-containing catheter into the right jugular vein and an infusion line into the left jugular vein. Both the sensor and drug infusion catheter were anchored in place using two sterile 6-0 silk sutures. 30 units of heparin were infused through the infusion line immediately after insertion of the sensor and prior to any recordings. To intravenously dose the rats at 30 mg/kg a precalculated volume of 0.05 M vancomycin solution was injected using a syringe pump.
Specifically, after calibrating a phenylalanine-detecting EAB sensor in vitro, FFT-EIS interrogation was used to measure the molecule's concentration in the jugular veins of anesthetized rats with 1.8 s resolution. Doing so, it was observed baseline phenylalanine concentrations of 41±10 μM (the latter reflects one standard deviation) in a fasted animal and 39±6 μM in a non-fasted animal, values in line with previous reports. Upon two intravenous infusions of additional phenylalanine, rapid rises to peak concentrations of 300-400 μM were observed, followed by rapid decays back to baseline in the fasted animal.
Reference is made to FIG. 6. Using FFT-EIS to interrogate phenylalanine-detecting EAB sensors this metabolite has been monitored in situ in the jugulars of live rats with 1.8 s resolution. Reference Is made to panel (A). A fasted animal was infused with two sequential doses of phenylalanine. In both cases, the concentration of free phenylalanine in the blood quickly decayed back to the pre-infusion baseline (41±10 μM, 31±9 μM, and 25±10 μM before injection, after the first injection, and after the final injection, respectively). Reference is made to Panel (B). In contrast, the return to the post-infusion baseline was slower in a non-fasted animal, which is consistent with previous reports regarding phenylalanine homeostasis. Here, the raw data (light points) are smoothed using a 13-s rolling average (darker trace). Concentration decay transients were fitted to a two compartment (i.e., biexponential) model (black traces).

[4] = FFT-EIS-interrogated EAB sensor in jugular vein, real-time plasma vancomycin after intravenous infusion; type: in vivo, Sprague-Dawley rats; conditions: rat jugular vein
Protocol: as §2
Prior to the measurement, the rats were anesthetized using 4% isofluorane in a Plexiglas anesthesia chamber. […]
Aptamer-modified gold wire working electrodes were bundled with platinum counter and silver-silver chloride reference electrodes in a 20-gauge catheter (FIG. 4, panel A), and surgically inserted the resulting three-electrode sensor into the right jugular vein of an anesthetized rat. Full impedance spectra (containing 18 frequencies between 1 Hz and 1 kHz, FIG. 9) was then measured every 1.8 second for 2.5 hours. […]
FFT-EIS interrogation of EAB sensors provides a highly-time-resolved window into molecular physiology and pharmacokinetics (FIG. 5, panel A). […] Prior to drug infusion, vancomycin concentrations were measured fluctuating tightly around zero (1.1±1.7 μM). […]

[5] = target: vancomycin-detecting EAB sensor (methylene-blue-modified aptamer); assay: FFT-EIS binding curve (ket vs concentration) of vancomycin-detecting EAB sensor in whole bovine blood at 37° C; conditions: ± = estimated 95% confidence intervals, read-out: dissociation constant (KD), Hill-Langmuir isotherm fit of ket
Protocol: as §1
All electrochemical measurements were performed using an Autolab PGStat128N. The potentiostat was configured in “high stability mode” with a current range of ±1 μA, which affects the filter characteristics. […] The potentiostat's native software (NOVA) was used to set the DC bias—the formal potential of methylene blue, as measured by cyclic voltammetry—on top of the AC perturbation. Voltage and current were recorded at 70 kHz using an SDS1202X-E oscilloscope. […]
Reference is made to FIG. 3. In panel (A) the vancomycin-detecting EAB sensor was immersed in whole bovine blood at 37° C. and challenged with increasing quantities of the target molecule. […]
The impedimetric properties of EAB sensors, which are sensitive to target concentration, can be rapidly measured using FFT-EIS to enable highly-time resolved molecular measurements. […]

[6] = fasted animal, first injection, ± = 95% confidence intervals
[7] = fasted animal, second injection, ± = 95% confidence intervals

Structure (SMILES): CC(O)C(=O)O (stereo not drawn) [lactate]
- plasma lactate level course after infusion [1]: gradually returned to the prior baseline

Structure (SMILES): N[C@@H](Cc1ccccc1)C(=O)O [phenylalanine]
- ket,0 (ket in the absence of phenylalanine) ([2]; fitted): 62.9 s⁻¹
- ket,max (ket at saturating phenylalanine) ([2]; fitted): 225.8 s⁻¹
- Kd ([2]; read-out: dissociation constant KD, Langmuir isotherm fit of ket): 6.89 mM
- baseline concentration after the final injection ([3]; fasted animal): 25 ± 10 µM
- baseline concentration after the first injection ([3]; fasted animal): 31 ± 9 µM
- time constant τ1, biexponential decay [3, 6]: 0.2 ± 0.1 min
- time constant τ2, biexponential decay [3, 6]: 3.8 ± 0.2 min
- time constant τ1, biexponential decay [3, 7]: 1.7 ± 0.1 min
- time constant τ2, biexponential decay [3, 7]: 20 ± 2 min
- peak concentration after intravenous infusion ([3]; fasted animal, two intravenous infusions): 300 to 400 µM
- baseline concentration before injection ([3]; fasted animal, ± = one standard deviation): 41 ± 10 µM
- baseline concentration ([3]; non-fasted animal): 39 ± 6 µM
- time constant T2, biexponential decay ([3]; non-fasted animal): 35 ± 7 min
- time constant τ1, biexponential decay ([3]; non-fasted animal): 3.3 ± 0.1 min

Structure (SMILES): CN[C@H](CC(C)C)C(=O)N[C@H]1C(=O)N[C@@H](CC(N)=O)C(=O)N[C@H]2C(=O)N[C@H]3C(=O)N[C@H](C(=O)N[C@H](C(=O)O)c4cc(O)cc(O)c4-c4cc3ccc4O)[C@H](O)c3ccc(c(Cl)c3)Oc3cc2cc(c3O[C@@H]2O[C@H](CO)[C@@H](O)[C@H](O)[C@H]2O[C@H]2C[C@](C)(N)[C@H](O)[C@H](C)O2)Oc2ccc(cc2Cl)[C@H]1O [vancomycin]
- time constant of monoexponential concentration decay ([4]; after 30 mg/kg intravenous infusion, three separate animals, ± = 95% confidence intervals): 33.1 ± 0.5 min and 37.3 ± 0.7 min and 47.4 ± 1.3 min
- measured concentration prior to drug infusion ([4]; pre-infusion): 1.1 ± 1.7 µM
- Kd [5]: 0.144 ± 0.031 mM
